{"source": "patent US12729368B2", "about": "“Methods and compositions for generating oligodendrocyte progenitor cells” (Trailhead Biosystems Inc., priority 2022, dated 2026)", "type_in_all_cases": "cell-based, human", "key": {"[1]": {"system": "cells cultured in stage 1 and stage 2 differentiation media", "experiment": "HD-DoE 8-factor model for stage 3 (version 2)", "method": "To further differentiate the cells to an oligodendrocyte progenitor identity, additional HD-DoE experiments were performed on the cells that were cultured in stage 1 and stage 2 differentiation media. After 3 days, gene expression of cells in different combinatorial conditions were investigated. At this time, we focused on maximal expression of signature oligodendrocyte progenitor genes such as SOX10, OLIG1 and PDGFRa (Goldman and Kuypers (2015) Development 142:3983-95: Marques et al. (2016) Science 352:1326-1329). In one 8-factor model, individual and combinatorial effects of TTNPB (an RA agonist), CHIR99021, FGF-2, IGF-1, AGN193109, Purmorphamine, MHY1485 (a mTOR pathway agonist) and SC79 (an AKT pathway agonist) were tested to guide the cells toward a SOX10/PDGFRa positive population. […] CHIR99021 was also positive, with a factor contribution of 8.1 (FIG. 33).\nOther positive factors were IGF-1, with a factor contribution of 11.2, CHIR99021, with a factor contribution of 8.5 and TTNPB, with a factor contribution below 1 (FIG. 34).\nTo confirm the impact of TTNPB, FGF-2 and IGF-1 on a bigger scale, we investigated the expression profile of a larger group of genes defining late oligodendrocyte progenitor population, such as ID2, CSPG4, FYN, SOX8, PLP1 and BCAN (Perlman et al. (2020). Glia 68:1291-1303; Goldman and Kuypers (2015) Development 142:3983-95; van Tilborg et al. (2018) Glia 66:221-238) and neuronal genes such as NEUROD1, NEUROG1 and NEUROG2 in presence of IGF-1, FGF-2 or TTNPB."}, "[2]": {"system": "cells cultured in stage 1 and stage 2 differentiation media", "experiment": "Two further HD-DoE models optimized for SOX10 (IGF-1, FGF-2, AGN193109)", "description": "According to literature, proteins such as FGF-2, IGF-1, PDGF-AA and NT-3 play an important role in oligodendrocyte differentiation (Goldman and Kuypers (2015) Development 142:3983-95). In the first model, FGF-2 had positive regulatory impact only on the expression level of SOX10 and IGF-1 on PDGFRa. Therefore, to further understand the impact of IGF-1 and FGF-2 on differentiation of cells and confirm their positive role, we included these factors in two other models and optimized the models for maximum expression of SOX10. This gene is one of the main transcription factors of oligodendrocytes, along with OLIG2 and NKX2-2 that has shown the potential to commit the stem cells to oligodendrocytes in reprogramming efforts (Wang et al, (2014) Proc Natl Arad Sri USA 111:E2885-94; García-León et al. (2018) Stem Cell Reports 10:655-672)."}, "OPCs [3]": {"system": "OPCs", "experiment": "HD-DoE 8-factor model for stage 4 on OPCs", "conditions": "optimized for maximal expression of CNP at 1339", "method": "(§1) To engineer the recipe of stage 4 of differentiation, 48 or 96 different combinations of effectors generated using Design-of-Experiments compression through D-optimality were robotically prepared. The effector combinations were prepared in a basal media and were subsequently added to the cells, which were treated with the stage 1, stage 2 and stage 3 differentiation media as described in the earlier examples to generate OPCs. […] Solutions within the tested space could then be explored to address desirability."}, "OPCs [4]": {"system": "OPCs", "experiment": "HD-DoE 12-factor model for stage 4 on OPCs, 6 days in culture", "method": "as §1, with “desirability. […] Benarroch (2009) Neurology 72:1779-1785; Shi et al. (2019) Exp Ther Med, 18:1258-1266).” for “desirability.”"}, "pre-OPCs [5]": {"system": "pre-OPCs", "experiment": "HD-DoE 12-factor model for stage 2 (version 1), 3 days on stage 1 pre-OPCs", "conditions": "optimized for maximum expression of OLIG2 at 1841.6; negative impact", "description": "To engineer the recipe of stage 2 of differentiation, cells were first cultured in the stage 1 media described in Example 1 and then treated with combinations of 8 or 12 factors for 3 days and the gene expression of cells in each condition was modeled. At this point, due to short duration of culture (only six days in vitro), we decided to focus on maximal expression of OLIG2 and maintenance of high expression of NKX2-2, while initiating expression of SOX10, OLIG1 and PDGFRa, to guide the cells towards oligodendrocyte fate (Emery and Lu (2015). Cold Spring Harb Perspect Biol. 7:a020461; Perlman et al. (2020). Glia 68:1291-1303; Goldman and. Kuypers (2015) Development 142:3983-95).\nIn one 12-factor model, the individual and combinatorial impact of SUN 11602 an agonist for FGF signaling pathway, FGF2, Activin A an activator of one of the receptors of TGF-b superfamily, A 8301, an inhibitor of TGF-b pathway, CHIR99021 a WNT activator, AGN193109 a RA antagonist, MK2206 an AKT inhibitor, Purmorphamine an agonist of SHH signaling pathway, AZD3147 an antagonist of mTOR pathway, MHY1485 an agonist of mTOR pathway, SC79 an agonist of AKT pathway and G06983 an inhibitor of PKC pathway, were tested.\nDynamic profile analysis was used to assess the expression levels of other genes of interests, such as NKX2-2, OLIG1 and SOX10, while the model is maximized for OLIG2. Activin A and SUN 11602 were brought down to zero due to their very low factor contribution. We observed when the model is optimized, the expression level of NKX2-2 is at 3000, PDGFRa at 1000, OLIG1 at 80 and SOX10 at 15 (FIG. 12)."}, "pre-OPCs [6]": {"system": "pre-OPCs", "experiment": "HD-DoE second 12-factor model for stage 2 (Purmorphamine with TTNPB, Biotin, Insulin etc.)", "conditions": "optimized for OLIG2; input for minimal expression (negative)", "method": "To gain more information about the effect of Purmorphamine on differentiation of pre-OPCs to a more committed cell population, we tested this factor in two other models. In a 12-factor model, we included Purmorphamine, FGF2, AGN193109 and CHIR99021 along with 8 new inputs including TTNPB, Biotin, Insulin, propionate, DBZ, Yhhu3792, LDN193189 and Y-27632. […] In another 12-factor model, Purmorphamine was tested along with A 8301, CHIR99021, Dexamethasone, T3+T4, PD0325901, ZM336372, DBZ, BMP7, PD173074, SANT-1 and PDGF-AA."}, "pre-OPCs [7]": {"system": "pre-OPCs", "experiment": "HD-DoE 8-factor model for stage 2 (version 2) on pre-OPCs", "conditions": "negative impact", "method": "To engineer the recipe of stage 2 of differentiation, cells were first cultured in the stage 1 media described in Example 1, then, 48 or 96 different combinations of effectors generated using Design-of-Experiments compression through D-optimality were robotically prepared. The effector combinations were prepared in a basal media and were subsequently added to the cells, which were then allowed to differentiate. Three days later RNA extraction was performed, and gene expression was obtained using quantitative PCR analysis. The data was normalized and modeled using partial least squares regression analysis to the effector design, resulting in the generation of gene-specific models, which after model tuning for maximal predictive power, provided explanation of the effectors ability to control the expression of individual genes, combinatorically, and individually. Solutions within the tested space could then be explored to address desirability.\nAt this point, due to short duration of culture (only six days in vitro) we decided to focus on maximal expression of OLIG2 and maintenance of high expression of NKX2-2, while initiating expression of SOX10, OLIG1 and PDGFRa, to guide the cells towards oligodendrocyte fate (Emery and Lu (2015). Cold Spring Harb Perspect Biol. 7:a020461; Perlman et al. (2020). Glia 68:1291-1303; Goldman and Kuypers (2015) Development 142:3983-95). In one 8-factor model, the individual and combinatorial impact of CHIR99021 (a WNT pathway agonist), AGN193109 (an RA pathway antagonist), FGF-2 (an FGFR agonist), Purmorphamine (an SHH pathway agonist), AICAR (an AMPK agonist), GW3965 (an LXR pathway agonist), GW590735 (a PPAR-a agonist) and AZD3147 (a mTOR antagonist) on further differentiation of cells were tested."}, "[8]": {"conditions": "optimized for CNP at 1790, positive"}, "[9]": {"conditions": "optimized for CNP at 1790, negative impact"}}, "note": "Several values for one entry are separate records, joined by “and”; a condition that tells them apart may be missing. Equal values may be shown once."}
{"compound": "IGF-1: IGFR activator (insulin-like growth factor 1)", "values": [{"measurement": "effect on late OPC genes and neuronal genes", "setting": "[1]; factor plots vs concentration", "value": "expression levels of OPC genes increased as the concentration of IGF-1 increased, while neuronal genes decreased"}, {"measurement": "factor contribution", "setting": "[1]; optimized for maximum expression of PDGFRa at 853.4, positive", "value": 11.2}, {"measurement": "impact on the expression level of SOX10", "setting": "[2]; two other models optimized for SOX10", "value": "positive impact"}, {"measurement": "factor contribution", "setting": "OPCs [3]; positive", "value": "below 1"}, {"measurement": "factor contribution", "setting": "OPCs [4]; [8]", "value": 5}]}
{"compound": "O=C(O)CCCC[C@@H]1SC[C@@H]2NC(=O)N[C@@H]21", "note": "[Biotin]", "values": [{"measurement": "factor contribution", "setting": "OPCs [3]; negative impact", "value": 12}, {"measurement": "factor contribution", "setting": "OPCs [4]; [9]", "value": "16 and 16.5"}]}
{"compound": "N[C@@H](Cc1cc(I)c(Oc2ccc(O)c(I)c2)c(I)c1)C(=O)O", "note": "[T3]", "values": [{"measurement": "factor contribution", "setting": "OPCs [3]; positive", "value": 18}, {"measurement": "effect on other OL genes and neuronal gene NeuroG1", "setting": "OPCs [4]; factor effect plots", "value": "can upregulate other OL genes such as PLP1, PTGDS, KLK6 and MBP while downregulating neuronal gene NeuroG1"}, {"measurement": "factor contribution", "setting": "OPCs [4]; [9]", "value": 1.2}]}
{"compound": "Cc1ccc(C2=CCC(C)(C)c3ccc(C#Cc4ccc(C(=O)O)cc4)cc32)cc1", "note": "[AGN193109]", "values": [{"measurement": "factor contribution", "setting": "pre-OPCs [5]", "value": 23.2}, {"measurement": "factor contribution", "setting": "pre-OPCs [6]", "value": 18.3}, {"measurement": "factor contribution", "setting": "pre-OPCs [7]; optimized for maximum expression of OLIG1 at 454.7", "value": 25.3}, {"measurement": "factor contribution", "setting": "pre-OPCs [7]; optimized for maximum expression of OLIG2 at 3325", "value": 25.8}, {"measurement": "factor contribution", "setting": "[2]; increasing level of SOX10, positive effect", "value": 16}]}
{"compound": "Insulin: insulin receptor agonist", "values": [{"measurement": "factor contribution", "setting": "OPCs [3]; positive", "value": 10}, {"measurement": "factor contribution", "setting": "OPCs [4]; [8]", "value": 3}, {"measurement": "factor contribution", "setting": "OPCs [4]; optimized for PLP1 at 3600, positive", "value": "13 and 13.2"}]}
